Reference: PubChem BioAssay (NCI)
Values joined by “and” are separate entries in the source; they are usually repeats but may differ in a detail not shown here. Equal entries are not always repeated.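 Five compound concentrations were applied to cells in 96-well plates for 48 hours; endpoints were derived by simple linear interpolation of the resulting dose-response curve. GI50 is the concentration that inhibits growth by half. Definition used: TGI = concentration required for complete inhibition of growth.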

How the values were obtained:
Test in all cases: growth of human tumour cells (NCI), 48 h
MDA-MB-468 breast = tested on: MDA-MB-468 breast
T-47D breast = tested on: T-47D breast
A498 renal = tested on: A498 renal
A549 NSCLC = tested on: A549 NSCLC
SF-539 CNS = tested on: SF-539 CNS
MDA-MB-435 = tested on: MDA-MB-435
SNB-19 CNS = tested on: SNB-19 CNS
SK-MEL-2 melanoma = tested on: SK-MEL-2 melanoma
NCI-H522 lung = tested on: NCI-H522 lung
DU-145 prostate = tested on: DU-145 prostate
EKVX NSCLC = tested on: EKVX NSCLC
MALME-3M melanoma = tested on: MALME-3M melanoma
OVCAR-8 ovarian = tested on: OVCAR-8 ovarian
TK-10 renal = tested on: TK-10 renal
786-0 renal = tested on: 786-0 renal
HOP-62 NSCLC = tested on: HOP-62 NSCLC
PC-3 prostate = tested on: PC-3 prostate
RXF 393 renal = tested on: RXF 393 renal
M14 melanoma = tested on: M14 melanoma
NCI-H226 lung = tested on: NCI-H226 lung
OVCAR-5 ovarian = tested on: OVCAR-5 ovarian
MCF7 breast = tested on: MCF7 breast
SN12C renal = tested on: SN12C renal
ACHN renal = tested on: ACHN renal
KM12 colon = tested on: KM12 colon
SK-OV-3 ovarian = tested on: SK-OV-3 ovarian
SK-MEL-28 melanoma = tested on: SK-MEL-28 melanoma
IGROV1 ovarian = tested on: IGROV1 ovarian
BT-549 breast = tested on: BT-549 breast
MDA-MB-231 breast = tested on: MDA-MB-231 breast
HCT-15 colon = tested on: HCT-15 colon
SF-268 CNS = tested on: SF-268 CNS
OVCAR-3 ovarian = tested on: OVCAR-3 ovarian
SR leukemia = tested on: SR leukemia
NCI-H23 lung = tested on: NCI-H23 lung
OVCAR-4 ovarian = tested on: OVCAR-4 ovarian
UACC-62 melanoma = tested on: UACC-62 melanoma
HS 578T breast = tested on: HS 578T breast
UO-31 renal = tested on: UO-31 renal
MOLT-4 leukemia = tested on: MOLT-4 leukemia
HOP-92 NSCLC = tested on: HOP-92 NSCLC
HCT-116 colon = tested on: HCT-116 colon
LOX IMVI melanoma = tested on: LOX IMVI melanoma
RPMI-8226 leukemia = tested on: RPMI-8226 leukemia
UACC-257 melanoma = tested on: UACC-257 melanoma
SK-MEL-5 melanoma = tested on: SK-MEL-5 melanoma
HL-60(TB) leukemia = tested on: HL-60(TB) leukemia
COLO 205 colon = tested on: COLO 205 colon
CCRF-CEM leukemia = tested on: CCRF-CEM leukemia
SF-295 CNS = tested on: SF-295 CNS
CAKI-1 renal = tested on: CAKI-1 renal

SMILES: Nc1nc(Cl)nc2c1ncn2C1CC(O)C(CO)O1 (stereo unspecified)
- GI50 (MDA-MB-468 breast): 56.6 µM
- TGI (MDA-MB-468 breast): > 100 µM

SMILES: CCOC(=O)c1c(C)c2c(n1Cc1ccccc1)CSCC2=O
- GI50 (MDA-MB-468 breast): 23.3 µM
- TGI (MDA-MB-468 breast): > 100 µM

SMILES: CCN(CCNS(C)(=O)=O)c1ccc(N)c(C)c1
- GI50 (MDA-MB-468 breast): 2.11 µM
- TGI (MDA-MB-468 breast): 5.64 µM

SMILES: C[C@H](CCOc1cccc(CC(=O)O)c1)N(Cc1cccc(C(F)(F)F)c1Cl)CC(c1ccccc1)c1ccccc1
- GI50 (MDA-MB-468 breast): 6.73 µM
- TGI (MDA-MB-468 breast): 24 µM

SMILES: COc1cc(/C=C2\CCCCC3=C2N=C2SC(C)=CN2C3c2cc(OC)c(OC)c(OC)c2)cc(OC)c1OC (stereo unspecified)
- GI50 (MDA-MB-468 breast): 0.185 µM
- TGI (MDA-MB-468 breast): > 100 µM

SMILES: O=c1[nH]c(-c2cccc(F)c2)cc2cc(F)ccc12
- GI50 (MDA-MB-468 breast): 1.89 µM
- TGI (MDA-MB-468 breast): > 100 µM

SMILES: COc1ccc(CNc2c3ccccc3nc3ccccc23)cc1F
- GI50 (MDA-MB-468 breast): 1.86 µM
- TGI (MDA-MB-468 breast): 4.81 µM

SMILES: O=C(Nc1nc(-c2c[nH]c3ccccc23)cs1)c1n[nH]c(=O)c2ccccc12
- GI50 (MDA-MB-468 breast): 77.9 µM
- TGI (MDA-MB-468 breast): > 100 µM

SMILES: O=C(Nc1ncc(Cc2cccc(C(F)(F)F)c2)s1)c1ccc2c(c1)OCCO2
- GI50 (MDA-MB-468 breast): 0.251 µM

SMILES: C=C(C)[C@@H]1CC[C@]2(CN)CC[C@]3(C)[C@H](CC[C@@H]4[C@@]5(C)CCCNC(C)(C)[C@@H]5CC[C@]43C)[C@@H]12
- GI50 (MDA-MB-468 breast): 1.75 µM
- TGI (MDA-MB-468 breast): 3.52 µM

SMILES: NNc1ncnc2nc[nH]c12
- GI50 (MDA-MB-468 breast): 5.79 µM
- TGI (MDA-MB-468 breast): > 100 µM

SMILES: CC[C@]1(O)C[C@H]2CN(CCc3c([nH]c4ccccc34)C(C(=O)OC)(c3cc4c(cc3OC)N(C)[C@H]3[C@@](O)(C(=O)OC)[C@H](OC(C)=O)[C@]5(CC)[C@@H]6C[C@@H]6CN6CC[C@]43[C@@H]65)C2)C1 (stereo partly specified)
- GI50 (MDA-MB-468 breast): 0.00285 µM
- TGI (MDA-MB-468 breast): 0.00917 µM

SMILES: COc1ccc(/C=C\c2cc(OC)c(OC)c(OC)c2)cc1OCC(=O)O
- GI50 (MDA-MB-468 breast): 49.3 µM
- TGI (MDA-MB-468 breast): > 100 µM

SMILES: Nc1c(C(=O)Nc2ccccn2)sc2nc3c(cc12)C(=O)CCC3
- GI50 (MDA-MB-468 breast): 0.269 µM
- TGI (MDA-MB-468 breast): 67.3 µM

SMILES: CCn1cc(-c2ccnc3[nH]c(-c4cccc(CN(C)C)c4)cc23)c(-c2ccc(NC(=O)N(C)C)cc2)n1
- GI50 (MDA-MB-468 breast): 0.0504 µM and 0.282 µM
- TGI (MDA-MB-468 breast): 16.7 µM and > 10 µM

SMILES: COc1ccc2[nH]cc(-c3cc4nc(-c5cn(C)c6ncccc56)cc(N)n4n3)c2c1
- GI50 (T-47D breast): 5.77 µM
- TGI (T-47D breast): 90.1 µM
- GI50 (A498 renal): 25.3 µM
- TGI (A498 renal): 49.4 µM
- GI50 (A549 NSCLC): 2.75 µM
- TGI (A549 NSCLC): > 100 µM
- GI50 (SF-539 CNS): 1.63 µM
- TGI (SF-539 CNS): 3.05 µM
- GI50 (MDA-MB-435): 10.8 µM
- TGI (MDA-MB-435): 27.8 µM
- GI50 (SNB-19 CNS): 8.67 µM
- TGI (SNB-19 CNS): 32.2 µM
- GI50 (SK-MEL-2 melanoma): 19.3 µM
- TGI (SK-MEL-2 melanoma): 53.2 µM
- GI50 (NCI-H522 lung): 4.48 µM
- TGI (NCI-H522 lung): > 100 µM
- GI50 (DU-145 prostate): 6.36 µM
- TGI (DU-145 prostate): > 100 µM
- GI50 (EKVX NSCLC): 8.55 µM
- TGI (EKVX NSCLC): 62.3 µM
- GI50 (MALME-3M melanoma): 5.02 µM
- TGI (MALME-3M melanoma): 18.3 µM
- GI50 (OVCAR-8 ovarian): 4.93 µM
- TGI (OVCAR-8 ovarian): > 100 µM
- GI50 (TK-10 renal): 19.1 µM
- TGI (TK-10 renal): > 100 µM
- GI50 (786-0 renal): 1.54 µM
- TGI (786-0 renal): 2.92 µM
- GI50 (HOP-62 NSCLC): 10.2 µM
- TGI (HOP-62 NSCLC): > 100 µM
- GI50 (PC-3 prostate): 6.67 µM
- TGI (PC-3 prostate): > 100 µM
- GI50 (RXF 393 renal): 1.67 µM
- TGI (RXF 393 renal): 3.27 µM
- GI50 (M14 melanoma): 4.56 µM
- TGI (M14 melanoma): 32.3 µM
- GI50 (NCI-H226 lung): 20.4 µM
- TGI (NCI-H226 lung): 57.2 µM
- GI50 (OVCAR-5 ovarian): 4.66 µM
- TGI (OVCAR-5 ovarian): 19.2 µM
- GI50 (MCF7 breast): 2.01 µM
- TGI (MCF7 breast): 4.94 µM
- GI50 (SN12C renal): 6.93 µM
- TGI (SN12C renal): 23.8 µM
- GI50 (ACHN renal): 3.48 µM
- TGI (ACHN renal): 12.5 µM
- GI50 (KM12 colon): 3.41 µM
- TGI (KM12 colon): > 100 µM
- GI50 (SK-OV-3 ovarian): 52.8 µM
- TGI (SK-OV-3 ovarian): > 100 µM
- GI50 (SK-MEL-28 melanoma): 10.8 µM
- TGI (SK-MEL-28 melanoma): 23.4 µM
- GI50 (IGROV1 ovarian): 2.12 µM
- TGI (IGROV1 ovarian): 4.93 µM
- GI50 (BT-549 breast): 7.03 µM
- TGI (BT-549 breast): 38.3 µM
- GI50 (MDA-MB-231 breast): 2.33 µM
- TGI (MDA-MB-231 breast): 5.2 µM
- GI50 (HCT-15 colon): 1.91 µM
- TGI (HCT-15 colon): 4.53 µM
- GI50 (MDA-MB-468 breast): 1.53 µM
- TGI (MDA-MB-468 breast): 3.12 µM
- GI50 (SF-268 CNS): 13.5 µM
- TGI (SF-268 CNS): > 100 µM
- GI50 (OVCAR-3 ovarian): 12.5 µM
- TGI (OVCAR-3 ovarian): > 100 µM
- GI50 (SR leukemia): 2.55 µM
- TGI (SR leukemia): > 100 µM
- GI50 (NCI-H23 lung): 6.29 µM
- TGI (NCI-H23 lung): 24.7 µM
- GI50 (OVCAR-4 ovarian): 2.06 µM
- TGI (OVCAR-4 ovarian): 5.15 µM
- GI50 (UACC-62 melanoma): 14.2 µM
- TGI (UACC-62 melanoma): 27.8 µM
- GI50 (HS 578T breast): 20.3 µM
- TGI (HS 578T breast): 64.6 µM
- GI50 (UO-31 renal): 3.59 µM
- TGI (UO-31 renal): 17.5 µM
- GI50 (MOLT-4 leukemia): 1.79 µM
- TGI (MOLT-4 leukemia): > 100 µM
- GI50 (HOP-92 NSCLC): 4.84 µM
- TGI (HOP-92 NSCLC): 51.7 µM
- GI50 (HCT-116 colon): 3.6 µM
- TGI (HCT-116 colon): 33.5 µM
- GI50 (LOX IMVI melanoma): 2.02 µM
- TGI (LOX IMVI melanoma): 3.6 µM
- GI50 (RPMI-8226 leukemia): 3.05 µM
- TGI (RPMI-8226 leukemia): > 100 µM
- GI50 (UACC-257 melanoma): 21.5 µM
- TGI (UACC-257 melanoma): 55.4 µM
- GI50 (SK-MEL-5 melanoma): 6.18 µM
- TGI (SK-MEL-5 melanoma): 19.3 µM
- GI50 (HL-60(TB) leukemia): 1.48 µM
- TGI (HL-60(TB) leukemia): 4.78 µM
- GI50 (COLO 205 colon): 4.71 µM
- TGI (COLO 205 colon): > 100 µM
- GI50 (CCRF-CEM leukemia): 2.56 µM
- TGI (CCRF-CEM leukemia): > 100 µM
- GI50 (SF-295 CNS): 1.68 µM
- TGI (SF-295 CNS): 3.26 µM
- GI50 (CAKI-1 renal): 4.03 µM
- TGI (CAKI-1 renal): 23.5 µM
